Laboratory results taken from patent US12559525B2, “Conjugated fibronectin-binding peptides for use in tumor or fibrosis diagnosis and therapy” (priority 2021, dated 2026).
No end group written: not given here.

Key:
67NR breast tumor = assay: Biodistribution of 111In-labelled peptides in 67NR orthotopic and syngeneic breast tumor model; type: in vivo, Balb/c mice; conditions: radioisotope-labelled peptide, 67NR orthotopic and syngeneic breast tumor mice
Procedure: FIG. 5: Biodistribution of ^111In-labeled NODAGA-FnBPA5 and its engineered version NODAGA-FnBPA5.1 in 67NR tumor-bearing mice 24 hours after injection. Results are shown as averages of % injected activity per gram±SD (n=4).
(§1) Animal studies were carried out according to the Swiss Animal Protection Law under the license AG75700. For tumor implantation, 40′000 67NR cells in 50 μL PBS were injected subcutaneously into the mammary fat pad at the 4th nipple of female Balb/c mice (Charles River, Germany) under isoflurane/oxygen anesthesia. Tumor growth was inspected regularly and tumors were measured using a caliper. Two weeks after tumor implantation, mice were injected via the tail vein with approximately 100-150 kBq of the corresponding ^111In-labelled radiotracers, previously diluted with PBS to a concentration of 1-1.5 MBq/mL. At 24 h p.i., mice were euthanized using CO2. The organs of interest were harvested, weighed and counted by means of gamma counter together with three standards containing 100 μL of the injection solution. The percentage of injected activity per gram (% IA/g) was calculated based on the average of the standards set at 100%.

PC-3 tumor = assay: Biodistribution of 111In-labelled peptides in PC-3 xenografts; type: in vivo, CD1 nu/nu mice; conditions: radioisotope-labelled peptide
Procedure: FIG. 4: Biodistribution of ^111In-labeled NODAGA-FnBPA5 and its engineered version NODAGA-FnBPA5.1 in PC-3 tumor-bearing CD1 nu/nu mice 24 hours after injection. Results are shown as averages of % injected activity per gram±SD (n=4).
as §1, with “implantation, 5×10^6 PC-3” for “implantation, 40′000 67NR”, “in 100” for “in 50”, “into both shoulders” for “into the mammary fat pad at the 4th nipple”, “female CD1 nu/nu” for “female Balb/c”, “caliper. Five” for “caliper. Two”

[1] = biological target: T1, Fib1 (N-terminal 30 kDa fragment of fibronectin, SEQ ID NO: 14) (Homo sapiens, UniProt P02751); assay: Affinity towards Fib1 by fluorescence polarization; type: binding; conditions: fluorescence polarization assay (Example 1, FIG. 1)
T1 construct: 6-His (C); made in house
T1 sequence (P02751 32-290): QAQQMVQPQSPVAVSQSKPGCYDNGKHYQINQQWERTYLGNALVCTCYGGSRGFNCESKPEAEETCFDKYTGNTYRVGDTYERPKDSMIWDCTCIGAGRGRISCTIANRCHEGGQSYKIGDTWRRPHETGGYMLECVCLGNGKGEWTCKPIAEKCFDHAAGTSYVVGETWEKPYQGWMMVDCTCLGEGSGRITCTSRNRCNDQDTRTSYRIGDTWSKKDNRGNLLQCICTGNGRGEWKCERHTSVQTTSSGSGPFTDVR
Procedure: FIG. 1: Affinity measurements of Cy5-labelled FnBPA5.1 and FnBPA5 towards the N-terminal 30 kDa fragment of Fibronectin (Fib1) according to SEQ ID NO: 14. Curves display triplicates measurements of fluorescence polarization. Error bars display standard deviations. Analysis was conducted using GraphPad Prism. KD is shown in nM.
Preferably, said affinity is measurable by using a fluorescence anisotropy assay, using a peptide with N-terminally appended Cy5 label (as described in Preparative Example 1). Detailed protocol for the measurement is included in Example 1.
For the affinity measurement experiment, Cy5-FnBPA5.1 (according to SEQ DI NO: 12) and Cy5-FnBPA5 (according to SEQ DI NO: 13) (48 nM) were mixed with different concentrations of Fib 1—N-terminal 30 kDa fragment of fibronectin according to SEQ ID NO: 14 (0 nM-4.5 μM) in PBS pH 7.4. Samples were incubated for 1 h (37° C., 70 rpm) and fluorescence polarization was measured in triplicates using the Pherastar FSX plate reader (BMG Labtech; Optic module: FP 590-50 675-50 675-50). […]

Gln-Val-Thr-Thr-Gly-Ser-Asn-Leu-Val-Glu-Phe-Thr-Glu-Glu-Ser-Leu-Gly-Ie-Val-Thr-Gly-Ala-Val-Ser-Asp-His-Thr-Thr-Val-Glu-Asp-Thr (QVTTGSNLVEFTEESLGIVTGAVSDHTTVEDT; not fully specified) [FnBPA5.1]
Uptake in tumors compared with FnBPA5 (67NR breast tumor): improved uptake in tumors
Uptake in tumors compared with FnBPA5 (PC-3 tumor; PC3 xenograft mice): improved uptake in tumors
Uptake in spleen and liver compared with FnBPA5 (PC-3 tumor; tumor model not given): lower uptake in spleen and liver
Affinity for Fib1 compared with FnBPA5 [1]: improved affinity
